Source: publication PMC8154581, “Discovery of Novel Thiophene-arylamide Derivatives as DprE1 Inhibitors with Potent Antimycobacterial Activities” (Journal of Medicinal Chemistry, 2021)
Values after ≈ are worked out from the molar mass of the structure shown. Values joined by “and” are separate entries in the source; they are usually repeats but may differ in a detail not shown here. Equal values may be shown once. Read-outs that look alike come from different tables or passages of the source.

Columns and labels:
[1] = system: M. tuberculosis H37Rv; test: MIC against replicating M. tuberculosis H37Rv, microplate Alamar blue assay (MABA); type: cell-based
[2] = system: Vero cells; test: Cytotoxicity assay in Vero cells (MTT); type: cell-based; settings: for IC50: Chlorocebus sabaeus, Vero cells, 48 h, read-out: IC50 (Vero)
[3] = system: M. tuberculosis H37Rv; test: In vivo efficacy in acute TB infection model in Balb/c mice
[4] = biological target: Mt-DprE1 (Mycobacterium tuberculosis, UniProt P9WJF1); type: biochemical, M. tuberculosis
[5] = Hepatocyte stability assay, mouse; settings: male, mouse hepatocytes
[6] = Hepatocyte stability assay, human; settings: human hepatocytes
[7] = Pharmacokinetic studies in Balb/c mice
[8] = Cytotoxicity assay in HepG2 cells (MTT); settings: human
[9] = biological target: hERG K+ channel (Homo sapiens, UniProt Q12809); test: Inhibition of the hERG K+ channel, electrophysiology
[10] = system: M. tuberculosis (H37Rv) in infected mouse J774A.1 macrophages; type: cell-based
[11] = Mycobacterium tuberculosis, H37RV, against M. tuberculosis H37Rv, Tables 1-3, read-out: MIC
[12] = Mycobacterium tuberculosis, H37RV, Table 4, read-out: MIC H37Rv
[13] = male, Balb/c, mouse, in vivo, iv, 5 mg/kg
[14] = male, Balb/c, mouse, in vivo, po, 50 mg/kg
[15] = Mycobacterium tuberculosis, H37RV, supplementary CSV, same values as Tables 1-3, read-out: Minimal inhibit concentration

Sequence of Mt-DprE1 (P9WJF1 whole entry, looked up): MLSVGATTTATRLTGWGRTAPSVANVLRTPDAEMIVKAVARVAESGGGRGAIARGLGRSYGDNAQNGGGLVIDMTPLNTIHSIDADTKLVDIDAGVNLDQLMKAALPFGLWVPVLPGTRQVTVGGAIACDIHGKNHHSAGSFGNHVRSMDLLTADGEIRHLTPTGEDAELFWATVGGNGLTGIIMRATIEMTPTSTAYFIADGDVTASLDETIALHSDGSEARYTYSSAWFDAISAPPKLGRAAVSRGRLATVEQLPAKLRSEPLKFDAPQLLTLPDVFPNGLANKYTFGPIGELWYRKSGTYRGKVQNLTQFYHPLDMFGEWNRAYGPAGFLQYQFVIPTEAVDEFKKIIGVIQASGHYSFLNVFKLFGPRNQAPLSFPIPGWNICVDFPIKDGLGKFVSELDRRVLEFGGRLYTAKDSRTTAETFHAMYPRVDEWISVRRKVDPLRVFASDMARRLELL
Sequence of hERG K+ channel (Q12809 whole entry): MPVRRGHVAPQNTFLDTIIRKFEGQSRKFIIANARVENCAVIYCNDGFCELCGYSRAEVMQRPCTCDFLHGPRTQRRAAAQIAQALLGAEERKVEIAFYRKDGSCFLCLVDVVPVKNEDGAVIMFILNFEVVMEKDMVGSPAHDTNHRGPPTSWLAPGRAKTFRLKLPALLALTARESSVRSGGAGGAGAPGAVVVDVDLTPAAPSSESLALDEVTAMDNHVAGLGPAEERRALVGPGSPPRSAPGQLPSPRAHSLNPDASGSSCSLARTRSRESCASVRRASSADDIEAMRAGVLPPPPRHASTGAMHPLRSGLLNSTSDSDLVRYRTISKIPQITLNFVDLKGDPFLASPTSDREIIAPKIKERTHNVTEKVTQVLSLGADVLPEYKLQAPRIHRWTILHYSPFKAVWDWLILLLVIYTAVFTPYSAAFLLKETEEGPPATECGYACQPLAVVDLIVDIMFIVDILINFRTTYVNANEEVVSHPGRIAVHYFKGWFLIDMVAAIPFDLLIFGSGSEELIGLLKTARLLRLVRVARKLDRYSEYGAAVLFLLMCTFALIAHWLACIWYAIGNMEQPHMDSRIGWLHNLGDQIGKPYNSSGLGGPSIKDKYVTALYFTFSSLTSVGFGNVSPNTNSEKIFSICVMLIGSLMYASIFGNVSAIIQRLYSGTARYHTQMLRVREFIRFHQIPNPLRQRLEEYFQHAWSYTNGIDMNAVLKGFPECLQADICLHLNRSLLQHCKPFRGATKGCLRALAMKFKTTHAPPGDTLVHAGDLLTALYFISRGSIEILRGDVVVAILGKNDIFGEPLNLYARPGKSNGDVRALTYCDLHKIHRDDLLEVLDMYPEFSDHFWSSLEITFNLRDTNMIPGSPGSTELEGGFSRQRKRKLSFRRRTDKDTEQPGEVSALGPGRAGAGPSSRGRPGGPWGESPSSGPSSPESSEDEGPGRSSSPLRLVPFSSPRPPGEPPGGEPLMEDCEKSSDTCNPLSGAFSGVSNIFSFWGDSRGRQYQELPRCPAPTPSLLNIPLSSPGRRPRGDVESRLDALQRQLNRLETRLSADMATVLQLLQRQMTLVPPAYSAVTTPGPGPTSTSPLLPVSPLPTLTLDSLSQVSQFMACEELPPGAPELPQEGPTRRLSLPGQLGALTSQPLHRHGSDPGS

SMILES: CCOC(=O)NC(=O)c1ccsc1NC(=O)c1nc2ccccc2s1 [TCA1, reference compound]
- MIC [1, 11]: 0.48 µg/mL (≈ 1.28 µM)
- MIC [1, 12]: 0.47 µg/mL (≈ 1.25 µM)
- IC50 [2]: 31.8 µg/mL (≈ 84.6 µM)
- Δlog10 CFU ([3]; in vivo): 2.86 log10 CFU
- log10 CFU/lung ([3]; second column (another batch, with TCA1; untreated 7.10), oral, three weeks, TCA1 100 mg/kg, INH 25 mg/kg): 4.24 ± 0.25 log10 CFU
- IC50 DprE1 [4]: 0.1 ± 0.01 µg/mL (≈ 0.266 µM)
- half-life at 1 µM [5]: 85.3 min
- remaining at 0.5 h [5]: 74.8%
- half-life at 1 µM [6]: 5.97 min
- remaining at 0.5 h, 1 µM [6]: 3.1%
- enhancement of oral bioavailability relative to 25a ([7]; Balb/c mice): 5 fold
- AUC(0-inf) at 24 h [7, 13]: 7910 ng·h/mL
- AUC(0-t) at 24 h [7, 13]: 7910 ng·h/mL
- Cmax at 24 h [7, 13]: 14300 ng/mL
- MRT inf at 24 h [7, 13]: 23.4 min
- clearance at 24 h [7, 13]: 10.6 mL/min/kg
- half-life at 24 h [7, 13]: 28.2 min
- AUC(0-inf) at 24 h [7, 14]: 33700 ng·h/mL
- AUC(0-t) at 24 h [7, 14]: 33700 ng·h/mL
- Cmax at 24 h [7, 14]: 10600 ng/mL
- MRT inf at 24 h [7, 14]: 172 min
- Tmax at 24 h [7, 14]: 60 min
- bioavailability at 24 h [7, 14]: 42.6%
- half-life at 24 h [7, 14]: 131 min
- IC50 at 48 h [8]: 46.1 µg/mL (≈ 123 µM)
- IC50 [9]: 18.3 µM

SMILES: CCOC(=O)NC(=O)c1ccsc1NC(=O)c1ccc(C(=O)N(CC)CC)cc1 [Compound 23c, Ethyl (2-(4-(Diethylcarbamoyl)benzamido)thiophene-3-carbonyl)carbamate]
- MIC [1, 11]: 0.28 µg/mL (≈ 0.671 µM)
- MIC [1, 15]: 0.28 µg/mL (≈ 0.671 µM)
- SI [2]: >229
- IC50 [2]: > 64 µg/mL
- melting point: 178 to 179 °C

SMILES: CCOC(=O)NC(=O)c1ccsc1NC(=O)c1coc(C(=O)N2CCCCC2)c1 [Compound 24k, Ethyl (2-(5-(Piperidine-1-carbonyl)furan-3-carboxamido)thiophene-3-carbonyl)carbamate]
- MIC [1, 11]: 0.37 µg/mL (≈ 0.882 µM)
- MIC [1, 15]: 0.37 µg/mL (≈ 0.882 µM)
- MIC [1, 12]: 0.15 µg/mL (≈ 0.358 µM)
- SI [2]: >173
- IC50 [2]: > 64 µg/mL
- melting point: 157 to 158 °C

SMILES: O=C(Nc1sccc1C(=O)Nc1nccc(C(F)(F)F)n1)c1ccc(C(=O)N2CCCCC2)cc1 [Compound 25l, 2-(4-(Piperidine-1-carbonyl)benzamido)-N-(4-(trifluoromethyl)pyrimidin-2-yl)thiophene-3-carboxamide]
- MIC [1, 11]: 0.2 µg/mL (≈ 0.397 µM)
- MIC [1, 15]: 0.2 µg/mL (≈ 0.397 µM)
- MIC [1, 12]: 0.2 µg/mL (≈ 0.397 µM)
- MIC ([1]; against M. tuberculosis H37Rv, Tables 1-3): 0.20 µg/mL (≈ 0.397 µM)
- IC50 [2]: > 64 µg/mL
- log10 CFU/macrophages [10]: 4.54 ± 0.00 log10 CFU and 4.59 ± 0.03 log10 CFU
- Δlog10 CFU [10]: 0.98 log10 CFU and 0.93 log10 CFU
- IC50 DprE1 [4]: 0.4 ± 0.1 µg/mL (≈ 0.794 µM)
- melting point: 182 to 183 °C

SMILES: CCOC(=O)NC(=O)c1ccsc1NC(=O)c1ccc(C(=O)N2CCSCC2)cc1 [Compound 23p, Ethyl (2-(4-(Thiomorpholine-4-carbonyl)benzamido)thiophene-3-carbonyl)carbamate]
- MIC [1, 11]: 0.33 µg/mL (≈ 0.737 µM)
- MIC [1, 15]: 0.33 µg/mL (≈ 0.737 µM)
- SI [2]: 159
- IC50 [2]: 52.3 µg/mL (≈ 117 µM)
- melting point: 178 to 179 °C

SMILES: CCOC(=O)NC(=O)c1ccsc1NC(=O)c1ccc(C(=O)NC23CC4CC(CC(C4)C2)C3)cc1 [Compound 23d, Ethyl (2-(4-(((3S,5S,7S)-Adamantan-1-yl)carbamoyl)benzamido)thiophene-3-carbonyl)carbamate]
- MIC [1, 11]: 0.12 µg/mL (≈ 0.242 µM)
- MIC [1, 15]: 0.12 µg/mL (≈ 0.242 µM)
- SI [2]: 16
- IC50 [2]: 1.96 µg/mL (≈ 3.95 µM)
- melting point: 157 to 158 °C

SMILES: COC(=O)NC(=O)c1ccsc1NC(=O)c1ccc(C(=O)N2CCCCC2)c(F)c1 [Compound 25b, Methyl (2-(3-Fluoro-4-(piperidine-1-carbonyl)benzamido)thiophene-3-carbonyl)carbamate]
- MIC H37Rv ([1]; H37Rv, Table 4): 0.030 µg/mL (≈ 0.0692 µM)
- MIC [1, 11]: 0.03 µg/mL (≈ 0.0692 µM)
- MIC [1, 15]: 0.03 µg/mL (≈ 0.0692 µM)
- MIC [1, 12]: 0.02 to 0.12 µg/mL (≈ 0.0461 to 0.277 µM)
- IC50 [2]: > 64 µg/mL
- log10 CFU/macrophages [10]: 4.59 ± 0.05 log10 CFU and 4.75 ± 0.21 log10 CFU
- Δlog10 CFU [10]: 0.93 log10 CFU and 0.77 log10 CFU
- IC50 DprE1 [4]: 0.4 ± 0.1 µg/mL (≈ 0.923 µM)
- half-life at 1 µM [5]: 12.5 min
- remaining at 0.5 h, 1 µM [5]: 19%
- half-life at 1 µM [6]: 32.6 min
- remaining at 0.5 h, 1 µM [6]: 52.8%
- IC50 at 48 h [8]: > 64 µg/mL
- IC50 [9]: > 30 µM

SMILES: CCOC(=O)NC(=O)c1ccsc1NC(=O)c1ccc(C(=O)N(C)CC)cc1 [Compound 23b, Ethyl (2-(4-(Ethyl(methyl)carbamoyl)benzamido)thiophene-3-carbonyl)carbamate]
- MIC [1, 11]: 0.95 µg/mL (≈ 2.35 µM)
- MIC [1, 15]: 0.95 µg/mL (≈ 2.35 µM)
- SI [2]: >67
- IC50 [2]: > 64 µg/mL
- melting point: 161 to 162 °C

SMILES: CCOC(=O)NC(=O)c1ccsc1NC(=O)c1ccc(C(=O)N2CCC(OC)CC2)cc1 [Compound 23m, Ethyl (2-(4-(4-Methoxypiperidine-1-carbonyl)benzamido)thiophene-3-carbonyl)carbamate]
- MIC [1, 11]: 0.12 µg/mL (≈ 0.261 µM)
- MIC [1, 15]: 0.12 µg/mL (≈ 0.261 µM)
- SI [2]: >533
- IC50 [2]: > 64 µg/mL
- melting point: 160 to 161 °C
